This is an account of results in paper PMC6019134, “1,2,6-Thiadiazinones as Novel Narrow Spectrum Calcium/Calmodulin-Dependent Protein Kinase Kinase 2 (CaMKK2) Inhibitors” (Molecules : A Journal of Synthetic Chemistry and Natural …, 2018).

As usually defined, the ΔTm is the shift of the melting midpoint relative to a reference.

What all share (experiment): DSF thermal shift, kinase panel
Holding throughout (assay type): binding
Common to all, as to conditions: 10 μM compound

The target of one experiment is T1, PKMYT1A (Homo sapiens, UniProt Q99640).
T1 construct: purchased in-house (home-made panel, SGC-style construct names)
T1 sequence (Q99640 1-499): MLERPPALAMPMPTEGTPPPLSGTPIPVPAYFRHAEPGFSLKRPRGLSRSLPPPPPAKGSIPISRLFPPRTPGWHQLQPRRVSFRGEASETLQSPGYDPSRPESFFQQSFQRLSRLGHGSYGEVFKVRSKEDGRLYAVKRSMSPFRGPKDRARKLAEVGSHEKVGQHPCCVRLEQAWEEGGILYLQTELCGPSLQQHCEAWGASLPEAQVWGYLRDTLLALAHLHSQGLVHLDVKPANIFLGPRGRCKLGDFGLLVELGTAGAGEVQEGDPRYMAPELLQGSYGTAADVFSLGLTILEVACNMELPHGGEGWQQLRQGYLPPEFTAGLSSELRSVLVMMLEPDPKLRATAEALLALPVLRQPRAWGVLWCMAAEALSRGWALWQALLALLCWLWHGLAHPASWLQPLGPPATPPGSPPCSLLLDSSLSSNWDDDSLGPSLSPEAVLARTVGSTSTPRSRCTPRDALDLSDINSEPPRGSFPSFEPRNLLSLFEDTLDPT
As for the experimental part: (§1) The corresponding dianilino-TDZs (1–5) were tested on a panel of 46 protein kinases representing the major kinome branches at a concentration of 10 μM using a Differential Scanning Fluorimetry (DSF). Only analogues 1–3 induced a significant (>2 °C) thermal shift when incubated with a subset of the proteins (Table 1).
(§2) Kinase selectivity assay—A home-made kinase panel was generated for the following enzymes: AAK1, BMP2K, BMX, BRAF, CAMK1D, CAMK1G, CAMKK1, CAMKK2B, CDC42BPA, CDK2, CDKL1, CHEK2, CLK1, CSNK1G1, CSNK1G3, CSNK2A1, DYRK1A, DYRK2A, EPHA2, GAK, GSG2, MAPK1, MAP2K7, MAPK14B, MAPK3, PHKG2, PIM1, PLK1, PKMYT1, PRPF4B, RPS6KA1A, RPS6KA5A, RPS6KA6A, SLK, SRPK1, SRPK2, STK3, STK6, STK10, STK17A, STK24, STK38L, TRIB2, TTK, VRK1 and VRK2. Proteins were produced in E. coli, purified in a Ni-chelate column, followed by overnight digestion using TEV protease (made in house with an N-terminal 6xHis tag) and dialysis to remove imidazole. To clear samples of uncleaved proteins and the TEV protease, samples were loaded on new Ni-chelate columns. The flow through was collected, concentrated and loaded to a HiLoad Superdex 200 16/600 column (GE Healthcare, Chicago, IL, USA) for final polishing and buffer exchange.
(§3) Starting from 100 µM protein stocks, our kinase panel enzymes were diluted to 1 µM in buffer 100 mM K2HPO4 pH 7.5 containing 150 mM NaCl, 10% glycerol and 5X dye (Applied Biosystems catalogue 4461806). The protein/dye mixture was transferred to a 384-well PCR microplate having 20 µL per well. Compounds in DMSO at 10 mM concentration were added in 20 nL volume, using a liquid handling device setup with a pin head, to make 10 µM compound concentration in the assay plate.
(§4) Protein thermal shift data was measured in a qPCR instrument (Applied Biosystems QuantStudio 6) programmed to equilibrate the plate at 25 °C for 5 min followed by ramping the temperature to 95 °C at a rate of 0.05 °C/s. Data was processed using Protein Thermal shift software (Applied Biosystems) by fitting experimental curves to a Boltzmann function to calculate differential thermal shifts (dTm) referenced to protein/dye in 0.2% DMSO.

A further experiment concerns the target T2, CAMKK2B (Homo sapiens, UniProt Q96RR4).
T2 construct: purchased in-house (home-made panel, SGC-style construct names)
The method, then: as §1, §2, §3, §4

The target of a further experiment is T3, TTKA (Homo sapiens, UniProt P33981).
T3 construct: TEV-cleavable (cleaved yes); made in house; host or cells: E. coli
T3 sequence (P33981 1-857): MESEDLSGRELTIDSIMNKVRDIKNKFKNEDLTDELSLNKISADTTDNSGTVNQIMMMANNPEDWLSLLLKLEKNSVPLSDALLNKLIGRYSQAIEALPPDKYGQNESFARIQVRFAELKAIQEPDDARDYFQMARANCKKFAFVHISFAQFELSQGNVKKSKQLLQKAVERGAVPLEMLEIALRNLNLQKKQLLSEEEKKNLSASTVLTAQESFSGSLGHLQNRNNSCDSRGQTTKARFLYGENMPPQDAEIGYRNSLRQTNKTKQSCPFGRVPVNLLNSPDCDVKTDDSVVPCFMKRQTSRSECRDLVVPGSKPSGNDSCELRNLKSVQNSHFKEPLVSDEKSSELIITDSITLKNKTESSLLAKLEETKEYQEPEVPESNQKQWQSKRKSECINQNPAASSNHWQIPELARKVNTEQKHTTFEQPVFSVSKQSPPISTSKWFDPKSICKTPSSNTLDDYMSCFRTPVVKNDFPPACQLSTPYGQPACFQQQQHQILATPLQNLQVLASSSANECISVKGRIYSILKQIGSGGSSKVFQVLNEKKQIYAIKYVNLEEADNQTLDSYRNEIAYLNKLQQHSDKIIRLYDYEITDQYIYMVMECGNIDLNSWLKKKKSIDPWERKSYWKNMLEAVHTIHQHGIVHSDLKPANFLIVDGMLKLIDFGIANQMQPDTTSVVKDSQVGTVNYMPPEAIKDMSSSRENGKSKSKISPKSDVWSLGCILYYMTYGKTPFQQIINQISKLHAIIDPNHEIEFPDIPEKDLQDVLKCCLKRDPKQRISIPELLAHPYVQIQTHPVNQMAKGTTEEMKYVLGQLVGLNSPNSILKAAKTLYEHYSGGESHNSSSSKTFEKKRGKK
The method, then:
as §1, §2, §3, §4

For the next experiment, the target named is T4, PLK1A (Homo sapiens, UniProt P53350).
T4 construct: purchased in-house (home-made panel, SGC-style construct names)
As for the experimental part: as §1, §2, §3, §4

A further experiment concerns the target T5, VRK1 (Homo sapiens, UniProt Q99986).
T5 construct: TEV-cleavable (cleaved yes); made in house; host or cells: E. coli
T5 sequence (Q99986 1-396): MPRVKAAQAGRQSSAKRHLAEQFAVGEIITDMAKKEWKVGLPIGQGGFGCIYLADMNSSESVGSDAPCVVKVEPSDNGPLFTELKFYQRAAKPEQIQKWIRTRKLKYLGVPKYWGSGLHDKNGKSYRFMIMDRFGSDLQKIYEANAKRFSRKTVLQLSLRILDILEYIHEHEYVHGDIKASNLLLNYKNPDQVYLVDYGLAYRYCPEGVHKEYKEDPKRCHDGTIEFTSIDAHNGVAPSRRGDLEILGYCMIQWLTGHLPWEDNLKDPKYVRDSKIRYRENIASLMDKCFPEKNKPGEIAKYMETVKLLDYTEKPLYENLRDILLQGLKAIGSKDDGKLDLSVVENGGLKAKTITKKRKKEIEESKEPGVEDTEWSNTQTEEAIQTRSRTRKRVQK
The method, then:
as §1, §2, §3, §4

SMILES strings stand for the structures.

T4 sequence (P53350 whole entry): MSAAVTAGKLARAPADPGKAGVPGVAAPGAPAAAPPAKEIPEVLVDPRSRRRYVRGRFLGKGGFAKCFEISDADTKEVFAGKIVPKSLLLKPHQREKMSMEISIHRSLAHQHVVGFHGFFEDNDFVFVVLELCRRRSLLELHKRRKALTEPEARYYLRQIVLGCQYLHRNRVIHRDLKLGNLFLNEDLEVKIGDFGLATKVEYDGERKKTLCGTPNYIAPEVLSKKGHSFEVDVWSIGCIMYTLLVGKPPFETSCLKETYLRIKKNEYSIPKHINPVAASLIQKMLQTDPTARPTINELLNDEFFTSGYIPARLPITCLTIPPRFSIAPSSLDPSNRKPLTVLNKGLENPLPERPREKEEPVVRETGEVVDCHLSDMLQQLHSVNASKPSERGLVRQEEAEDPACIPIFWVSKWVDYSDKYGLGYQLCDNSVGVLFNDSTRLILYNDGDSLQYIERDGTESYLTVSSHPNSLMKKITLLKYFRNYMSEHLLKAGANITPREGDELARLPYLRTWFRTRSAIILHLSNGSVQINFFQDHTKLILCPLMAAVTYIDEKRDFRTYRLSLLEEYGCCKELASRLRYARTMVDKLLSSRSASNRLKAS
T2 sequence (Q96RR4 161-449): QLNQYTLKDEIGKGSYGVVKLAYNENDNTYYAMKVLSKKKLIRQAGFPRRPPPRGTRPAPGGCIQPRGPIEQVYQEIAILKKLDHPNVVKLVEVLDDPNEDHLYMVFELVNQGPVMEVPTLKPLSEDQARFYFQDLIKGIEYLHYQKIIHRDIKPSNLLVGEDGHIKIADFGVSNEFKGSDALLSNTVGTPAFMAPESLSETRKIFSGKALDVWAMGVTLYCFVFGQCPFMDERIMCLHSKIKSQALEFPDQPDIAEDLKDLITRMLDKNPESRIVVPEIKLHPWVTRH

On to `Cc1ccc(Nc2nsnc(Nc3cccc(C(N)=O)c3)c2=O)cc1O` [Compound 1, 3-({5-[(3-Hydroxy-4-methylphenyl)amino]-4-oxo-4H-1,2,6-thiadiazin-3-yl}amino)benzamide], for which the shift in melting temperature (ΔTm) at 10 µM on PKMYT1A was 0 °C; on CAMKK2B, 0.5 °C; on TTKA it was 0.8 °C; on PLK1A it was 0.3 °C; on VRK1, -0.4 °C.

`Cc1ccc(Nc2nsnc(Nc3ccc(C(N)=O)cc3)c2=O)cc1O` [Compound 2, 4-({5-[(3-Hydroxy-4-methylphenyl)amino]-4-oxo-4H-1,2,6-thiadiazin-3-yl}amino)benzamide]: the ΔTm at 10 µM at PKMYT1A was 3 °C; at CAMKK2B it was 2.9 °C; on TTKA it was 2.6 °C; on PLK1A, -0.2 °C; on VRK1, -0.7 °C.

For the compound `Cc1ccc(Nc2nsnc(Nc3ccc4c(c3)CS(=O)(=O)C4)c2=O)cc1O` [Compound 3, 3-[(2,2-Dioxido-1,3-dihydrobenzo[c]thiophen-5-yl)amino]-5-[(3-hydroxy-4-methylphenyl)amino]-4H-1,2,6-thiadiazin-4-one], the ΔTm at 10 µM on PKMYT1A is 1.2 °C; on CAMKK2B it was 2.3 °C; on TTKA it was 2.1 °C; on PLK1A it was 1.1 °C; at VRK1, -0.2 °C.

In the case of `CNC(=O)c1ccccc1Nc1nsnc(Nc2cccc(CS(C)(=O)=O)c2)c1=O` [Compound 4, N-Methyl-2-([5-({3-[(methylsulfonyl)methyl]phenyl}amino)-4-oxo-4H-1,2,6-thiadiazin-3-yl]-amino}-benzamide], the thermal shift (ΔTm) at 10 µM was -0.3 °C at PKMYT1A; -0.4 °C at CAMKK2B; 0.3 °C on TTKA; 0.2 °C at PLK1A; -0.3 °C at VRK1.

`CNC(=O)c1ccccc1Nc1nsnc(Nc2ccc(N3CCOCC3)cc2)c1=O` [Compound 5, N-Methyl-2-({5-[(4-morpholinophenyl)amino]-4-oxo-4H-1,2,6-thiadiazin-3-yl}amino)benzamide]: the thermal shift (ΔTm) at 10 µM on PKMYT1A was -0.8 °C; at CAMKK2B, -0.5 °C; on TTKA, 0.1 °C; on PLK1A, 0.2 °C; on VRK1, -0.3 °C.
